# Values joined by “and” are separate entries in the source; they are usually repeats but may differ in a detail not shown here. Equal values may be shown once. Read-outs that look alike come from different tables or passages of the source.
# How the values were obtained:
# [1] = system: vincristine (VCR)-resistant mouse leukemia (P388/VCR) cells; experiment: Antitumor agent potentiating effect in vincristine-resistant tumor bearing mouse (Example 11, i.p. 5 days); assay type: in vivo
# Protocol: (§1) The potentiating effect of the antitumor agent (T/V) % was determined according to the formula shown below. Verapamil was employed as the positive Control compound. […] In the Tables, Compound 1 is the compound obtained in Example 1, Compound 2 that obtained in Example 2, Compound 3 that obtained in Example 3, Compound 4 that obtained in Example 4, and Compound 5 that obtained in Example 5. [formula]
# ICR mice = experiment: acute toxicity test; settings: mouse, in vivo;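 note: intraperitoneal dosing with deaths counted over 10 days of observation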
# Protocol: Male 6-week-old ICR mice were divided into groups of 2 to 5 mice per group. […] The drugs to be tested were administered in varying amounts of 250 to 2000 mg/kg to 5 or 7 groups (a geometrical series of .cent.2), at a dose volume of 10 ml/kg. In the Table, the respective compounds have the same meanings as described above.
# rat rectum smooth muscle = experiment: Inhibitory effects on potassium contracture in rat rectum smooth muscle; assay type: cell-based; settings: 5 min, K contraction 5.6 to 56.0 mM, read-out: Inhibition ratio; for inhibition at 0.1 µM: 10^-7 M; for inhibition at 0.01 µM: 10^-8 M
# Protocol: Rat rectum (about 1.5 cm) was isolated and suspended in a Magnus tube. A Locke solution was employed as the nutrient solution, and a contraction of the intestinum rectum was caused by changing the potassium (K) concentration of this solution from 5.6 mmol (mM) to 56.0 mM. This contraction was a contraction through a membrane dependent Ca-channel mediated contraction based on depolarization by a K concentration change. The contraction was recorded by an FD-transducer and polygraph. The compounds of the present invention were permitted to act 5 minutes before changing the K concentration, and simultaneously with changing the K concentration. […] A judgement was made 5 minutes after changing the K concentration, and the difference in contraction before the concentration change was indicated as an inhibition % value. Verapamil and nicardipine were employed as the positive control compound .
# [2] = system: spontaneously hypertensive rats (SHR); settings: rat, in vivo, ip
# Protocol: The systolic blood pressure was measured by using spontaneously hypertensive rats (SHR), which are a model of hypertension when examine the hypotensive activities of the compounds of the present invention and the positive Control compound. The rats were warmed for 5 minutes in a warming box at 55° C., and their blood pressure then measured by a tail cuff plethysmograph. The compounds of the present invention were administered singly and intraperitoneally at a dose of 100 mg/kg and the positive Control compound was administered singly and intraperitoneally at a dose of 10 mg/kg. […] Blood pressure measurements were taken before administration and 60 minutes after administration. Nicardipine was employed as the positive Control compound.
# [3] = system: vincristine (VCR)-resistant mouse leukemia (P388/VCR) cells; experiment: Antitumor agent potentiating effect in vincristine-resistant tumor bearing mouse (Example 12, i.p.); assay type: in vivo
# Protocol: as §1
# The potentiating effect of the antitumor agent (T/V) % was determined as described above (Example 11). Nicardipine was employed as the positive Control compound, and was administered intraperitoneally for 10 days. […] In the Tables, Compound 6 is the compound obtained in Example 6, Compound 7 that obtained in Example 7, and Compound 8 that obtained in Example 8.
# [4] = system: vincristine (VCR)-resistant mouse leukemia (P388/VCR) cells; experiment: Antitumor agent potentiating effect in vincristine-resistant tumor bearing mouse (Example 13, oral compound, 10 days); assay type: in vivo
# [5] = system: antitumor drug sensitive cells P388/S of mouse P388 leukemia cells; experiment: VCR alone in mice bearing drug sensitive P388/S leukemia (Example 13, Table 8(B)); assay type: in vivo
# Protocol: The compounds of this invention were administered orally after the treatment described above, and VCR was administered as described above. The progress thereof was observed and the survival days for respective animals were determined to obtain the survival ratio (T/C) % relative to the Control. The antitumor agent potentiating effect (T/V) % was determined as described above. In the Table, Compound 8 is the compound obtained in Example 8.
# [6] = compound 100 mg/kg i.p. + VCR 30 μg/kg i.p.
# [7] = compound alone 100 mg/kg i.p., no VCR
# [8] = compound 50 mg/kg/day oral + VCR 100 μg/kg/day i.p.
# [9] = compound 100 mg/kg/day oral + VCR 10 μg/kg/day i.p.
# [10] = compound 100 mg/kg/day oral + VCR 30 μg/kg/day i.p.
# [11] = compound 100 mg/kg/day oral + VCR 100 μg/kg/day i.p.
# [12] = compound 200 mg/kg/day oral + VCR 10 μg/kg/day i.p.
# [13] = compound 200 mg/kg/day oral + VCR 30 μg/kg/day i.p.
# [14] = compound 200 mg/kg/day oral + VCR 100 μg/kg/day i.p.
# [15] = compound 300 mg/kg/day oral + VCR 10 μg/kg/day i.p.
# [16] = compound 300 mg/kg/day oral + VCR 30 μg/kg/day i.p.
# [17] = positive control 50 mg/kg i.p., 10 days + VCR 30 μg/kg
# [18] = positive control 75 mg/kg i.p., 10 days + VCR 30 μg/kg
# [19] = positive control alone 50 mg/kg i.p., 10 days
# [20] = positive control alone 75 mg/kg i.p., 10 days
# [21] = VCR 30 μg/kg i.p. alone (reference = 100)
# [22] = positive control 30 mg/kg + VCR 30 μg/kg
# [23] = positive control 60 mg/kg + VCR 30 μg/kg
smiles,measurement,setting,value
"CC1=C(C(=O)OCc2ccccn2)C(C2=COCCO2)C(C(=O)OCc2ccccn2)=C(C)N1 [Compound 1, bis(2-pyridylmethyl) 4-[2-(5,6-dihydro-p-dioxinyl)]-2,6-dimethyl-1,4-dihydropyridine-3,5-dicarboxylate]",Potentiating effect T/V,[1]; [6],116%
same,Survival Days (Mean ± SD),[1]; [6],14.5 ± 1.6 days
same,Survival ratio T/C,[1]; [6],121%
same,Survival Days (Mean ± SD),[1]; [7],12.2 ± 0.8 days
same,Survival ratio T/C,[1]; [7],102%
same,Mortality,ICR mice,0/2
same,inhibition at 0.1 µM,rat rectum smooth muscle,11.2%
"CC1=C(C(=O)OCCc2ccccn2)C(C2=COCCO2)C(C(=O)OCCc2ccccn2)=C(C)N1 [Compound 4, bis[2-(2-pyridyl)ethyl]4-[2-(5,6-dihydro-p-dioxinyl)]-2,6-dimethyl-1,4-dihydropyridine-3,5-dicarboxylate]",Potentiating effect T/V,[1]; [6],121%
same,Survival Days (Mean ± SD),[1]; [6],13.7 ± 1.6 days
same,Survival ratio T/C,[1]; [6],126%
same,inhibition at 0.1 µM,rat rectum smooth muscle,5.2%
same,inhibition at 0.01 µM,rat rectum smooth muscle,-6.9%
"CCc1ccc(COC(=O)C2=C(C)NC(C)=C(C(=O)OCc3ccc(CC)cn3)C2C2=COCCO2)nc1 [Compound 5, bis[2-(5-ethylpyridyl)methyl]4-[2-(5,6-dihydro-p-dioxinyl)-]2,6-dimethyl-1,4-dihydropyridine-3,5-dicarboxylate]",Blood pressure change,[2]; 100 mg/kg,-34 mmHg
same,Systolic Blood Pressure 60 minutes after administration,[2]; 100 mg/kg,187 mmHg
same,Potentiating effect T/V,[1]; [6],131%
same,Survival Days (Mean ± SD),[1]; [6],14.8 ± 1.2 days
same,Survival ratio T/C,[1]; [6],136%
same,Mortality,ICR mice,0/2 and 0/3
"CC1=C(C(=O)OCc2ccccn2)C(C2=CSCCS2)C(C(=O)OCc2ccccn2)=C(C)N1 [Compound 6, bis(2-pyridylmethyl) 4-[2-(5,6-dihydro-1,4-dithiinyl)]-2,6-dimethyl-1,4-dihydropyridine-3,5-dicarboxylate]",Blood pressure change,[2]; 100 mg/kg,-30 mmHg
same,Systolic Blood Pressure 60 minutes after administration,[2]; 100 mg/kg,191 mmHg
same,Mortality,ICR mice,0/2 and 0/3
same,Potentiating effect T/V,[3]; [6],125%
same,Survival Days (Mean ± SD),[3]; [6],14.2 ± 1.2 days
same,Survival ratio T/C,[3]; [6],138%
same,Survival Days (Mean ± SD),[3]; [7],10.8 ± 0.8 days
same,Survival ratio T/C,[3]; [7],105%
"CC1=C(C(=O)OCc2cccnc2)C(C2=CSCCS2)C(C(=O)OCc2cccnc2)=C(C)N1 [Compound 7, bis(3-pyridylmethyl) 4-[2-(5,6-dihydro-1,4-dithiinyl)]-2,6-dimethyl-1,4-dihydropyridine-3,5-dicarboxylate]",Blood pressure change,[2]; 100 mg/kg,-38 mmHg
same,Systolic Blood Pressure 60 minutes after administration,[2]; 100 mg/kg,189 mmHg
same,Potentiating effect T/V,[3]; [6],118%
same,Survival Days (Mean ± SD),[3]; [6],13.5 ± 0.8 days
same,Survival ratio T/C,[3]; [6],131%
same,Survival Days (Mean ± SD),[3]; [7],11.0 ± 0.6 days
same,Survival ratio T/C,[3]; [7],107%
"CC1=C(C(=O)OCc2ccncc2)C(C2=C(C)SCCS2)C(C(=O)OCc2ccncc2)=C(C)N1 [Compound 8, bis(4-pyridylmethyl) 4-[2-(3-methyl-5,6-dihydro-1,4-dithiinyl)-]2,6-dimethyl-1,-4-dihydropyridine-3,5-dicarboxylate]",Blood pressure change,[2]; 100 mg/kg,-11 mmHg
same,Systolic Blood Pressure 60 minutes after administration,[2]; 100 mg/kg,187 mmHg
same,Potentiating effect T/V,[3]; [6],138%
same,Survival Days (Mean ± SD),[3]; [6],13.5 ± 0.8 days
same,Survival ratio T/C,[3]; [6],138%
same,Survival Days (Mean ± SD),[3]; [7],9.7 ± 1.0 days
same,Survival ratio T/C,[3]; [7],99%
same,life prolonging effect compared with VCR alone in P388/S,"[4]; combination with VCR, P388/VCR, Table 8","has an effect comparable to the prolonging effect when VCR is administered alone to P388/S which is a vincristine-sensitive clone (Table 8), thus completely overcoming the VCR resistance"
same,Potentiating effect T/V,[4]; [8],120%
same,Survival Days (Mean ± SD),[4]; [8],12.5 ± 1.6 days
same,Survival ratio T/C,[4]; [8],132%
same,Potentiating effect T/V,[4]; [9],120%
same,Survival Days (Mean ± SD),[4]; [9],11.3 ± 0.8 days
same,Survival ratio T/C,[4]; [9],119%
same,Potentiating effect T/V,[4]; [10],118%
same,Survival Days (Mean ± SD),[4]; [10],12.2 ± 1.2 days
same,Survival ratio T/C,[4]; [10],128%
same,Potentiating effect T/V,[4]; [11],130%
same,Survival Days (Mean ± SD),[4]; [11],13.5 ± 1.4 days
same,Survival ratio T/C,[4]; [11],142%
same,Potentiating effect T/V,[4]; [12],131%
same,Survival Days (Mean ± SD),[4]; [12],12.3 ± 0.5 days
same,Survival ratio T/C,[4]; [12],129%
same,Potentiating effect T/V,[4]; [13],139%
same,Survival Days (Mean ± SD),[4]; [13],14.3 ± 1.0 days
same,Survival ratio T/C,[4]; [13],151%
same,Potentiating effect T/V,[4]; [14],156%
same,Survival Days (Mean ± SD),[4]; [14],16.2 ± 2.4 days
same,Survival ratio T/C,[4]; [14],171%
same,Potentiating effect T/V,[4]; [15],144%
same,Survival Days (Mean ± SD),[4]; [15],13.5 ± 0.5 days
same,Survival ratio T/C,[4]; [15],142%
same,Potentiating effect T/V,[4]; [16],149%
same,Survival Days (Mean ± SD),[4]; [16],15.3 ± 1.5 days
same,Survival ratio T/C,[4]; [16],161%
"COC(=O)C1=C(C)NC(C)=C(C(=O)OCCN(C)Cc2ccccc2)C1c1cccc([N+](=O)[O-])c1 (stereo not drawn) [Nicardipine, reference compound]",Blood pressure change,[2]; 10 mg/kg,-122 mmHg
same,Systolic Blood Pressure 60 minutes after administration,[2]; 10 mg/kg,86 mmHg
same,inhibition at 0.01 µM,rat rectum smooth muscle,73.1%
same,Potentiating effect T/V,[3]; [17],112%
same,Survival Days (Mean ± SD),[3]; [17],12.3 ± 0.8 days
same,Survival ratio T/C,[3]; [17],128%
same,Potentiating effect T/V,[3]; [18],125%
same,Survival Days (Mean ± SD),[3]; [18],13.7 ± 1.2 days
same,Survival ratio T/C,[3]; [18],143%
same,Survival Days (Mean ± SD),[3]; [19],10.6 ± 1.5 days
same,Survival ratio T/C,[3]; [19],110%
same,Survival Days (Mean ± SD),[3]; [20],11.2 ± 1.1 days
same,Survival ratio T/C,[3]; [20],117%
"CC[C@]1(O)C[C@H]2CN(CCc3c([nH]c4ccccc34)[C@@](C(=O)OC)(c3cc4c(cc3OC)N(C=O)[C@H]3[C@@](O)(C(=O)OC)[C@H](OC(C)=O)[C@]5(CC)C=CCN6CC[C@]43[C@@H]65)C2)C1 [VCR, vincristine, reference compound]",Survival Days (Mean ± SD),[5]; VCR 10 μg/kg/day alone,11.8 ± 0.8 days
same,Survival ratio T/C,[5]; VCR 10 μg/kg/day alone,144%
same,Survival Days (Mean ± SD),[5]; VCR 30 μg/kg/day alone,13.3 ± 0.9 days
same,Survival ratio T/C,[5]; VCR 30 μg/kg/day alone,162%
same,Survival Days (Mean ± SD),[5]; VCR 100 μg/kg/day alone,15.2 ± 0.8 days
same,Survival ratio T/C,[5]; VCR 100 μg/kg/day alone,185%
same,Survival Days (Mean ± SD),[1]; VCR 30 μg/kg i.p. alone,12.5 ± 1.4 days and 10.5 ± 0.8 days and 11.3 ± 1.0 days and 11.8 ± 1.3 days
same,Survival ratio T/C,[1]; VCR 30 μg/kg i.p. alone,104%
same,Potentiating effect T/V,[1]; [21],100%
same,Survival Days (Mean ± SD),[3]; VCR 30 μg/kg i.p. alone,11.4 ± 1.0 days and 9.8 ± 0.8 days and 11.0 ± 1.8 days
same,Survival ratio T/C,[3]; VCR 30 μg/kg i.p. alone,100%
same,Potentiating effect T/V,[3]; [21],100%
same,Survival Days (Mean ± SD),[4]; VCR 10 μg/kg/day i.p. alone,9.4 ± 0.7 days
same,Survival ratio T/C,[4]; VCR 10 μg/kg/day i.p. alone,99%
same,Potentiating effect T/V,[4]; VCR 10 μg/kg/day i.p. alone (reference = 100),100%
same,Survival Days (Mean ± SD),[4]; VCR 30 μg/kg/day i.p. alone,10.3 ± 1.5 days
same,Potentiating effect T/V,[4]; VCR 30 μg/kg/day i.p. alone (reference = 100),100%
same,Survival Days (Mean ± SD),[4]; VCR 100 μg/kg/day i.p. alone,10.4 ± 0.9 days
same,Potentiating effect T/V,[4]; VCR 100 μg/kg/day i.p. alone (reference = 100),100%
"COc1ccc(CCN(C)CCCC(C#N)(c2ccc(OC)c(OC)c2)C(C)C)cc1OC (stereo not drawn) [Verapamil, reference compound]",Potentiating effect T/V,[1]; [22],121%
same,Survival Days (Mean ± SD),[1]; [22],14.3 ± 1.6 days
same,Survival ratio T/C,[1]; [22],134%
same,Potentiating effect T/V,[1]; [23],130%
same,Survival Days (Mean ± SD),[1]; [23],15.3 ± 0.5 days
same,Survival ratio T/C,[1]; [23],143%
same,inhibition at 0.1 µM,rat rectum smooth muscle,50.2%
same,inhibition at 0.01 µM,rat rectum smooth muscle,13.6%

# Reference: patent US4985558A, “1,4-dihydropyridine derivative” (Nikken Chemicals Co., Ltd., priority 1988, dated 1991)
